Experimental data from ChEMBL document CHEMBL1201862, “PubChem BioAssay data set” (2004).
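Growth conditions: 96-well plates. Treatment: test compound, 48 hours, 5 concentrations. Analysis: linear interpolation between bracketing concentrations; unreached endpoints set to highest concentration. The concentration for 50% growth inhibition is given as GI50.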 Activity calls are given as the source filed them. Rule as the data show it: active = GI50 up to about 1.1 µM and inactive = higher.

Key:
Assay in all cases: DTP human tumour cell line panel, 48 h
786-0 = test system: 786-0
A498 = test system: A498
A549 = test system: A549
ACHN = test system: ACHN
CAKI-1 = test system: CAKI-1
CCRF-CEM = test system: CCRF-CEM
COLO 205 = test system: COLO 205
DLD-1 = test system: DLD-1
DMS-114 = test system: DMS-114
DMS-273 = test system: DMS-273
EKVX = test system: EKVX
HCC 2998 = test system: HCC 2998
HCT-116 = test system: HCT-116
HCT-15 = test system: HCT-15
HL-60 = test system: HL-60
HOP-18 = test system: HOP-18
HOP-62 = test system: HOP-62
HOP-92 = test system: HOP-92
HT-29 = test system: HT-29
IGROV-1 = test system: IGROV-1
K562 = test system: K562
KM-20L2 = test system: KM-20L2
KM12 = test system: KM12
LOX IMVI = test system: LOX IMVI
LXFL 529 = test system: LXFL 529
M14 = test system: M14
M19-MEL = test system: M19-MEL
MOLT-4 = test system: MOLT-4
Malme-3M = test system: Malme-3M
NCI-H226 = test system: NCI-H226
NCI-H23 = test system: NCI-H23
NCI-H460 = test system: NCI-H460
NCI-H522 = test system: NCI-H522
OVCAR-3 = test system: OVCAR-3
OVCAR-4 = test system: OVCAR-4
OVCAR-5 = test system: OVCAR-5
OVCAR-8 = test system: OVCAR-8
RPMI-8226 = test system: RPMI-8226
RXF 393 = test system: RXF 393
SF-268 = test system: SF-268
SF-295 = test system: SF-295
SF-539 = test system: SF-539
SK-MEL-28 = test system: SK-MEL-28
SK-MEL-2 = test system: SK-MEL-2
SK-MEL-5 = test system: SK-MEL-5
SK-OV-3 = test system: SK-OV-3
SN12C = test system: SN12C
SNB-19 = test system: SNB-19
SNB-75 = test system: SNB-75
SNB-78 = test system: SNB-78
SR = test system: SR
SW-620 = test system: SW-620
TK-10 = test system: TK-10
U-251 = test system: U-251
UACC-257 = test system: UACC-257
UACC-62 = test system: UACC-62
UO-31 = test system: UO-31
XF498 = test system: XF498

With `OC1[C@H]([C@H]2CCCC[C@@H]2O)CCC[C@@H]1[C@@H]1CCCC[C@H]1O` (stereo partly drawn) as the molecule, how does the GI50 (786-0) read?
Its GI50 is > 100 µM (inactive).

And the GI50 (A498)?
Its GI50 is > 100 µM (inactive).

What about the GI50 (A549) of the same molecule?
The GI50 was > 100 µM (inactive).

And the GI50 (ACHN)?
Its GI50 is > 100 µM (inactive).

And the GI50 (CAKI-1)?
Its GI50 is > 100 µM (inactive).

And the GI50 (CCRF-CEM)?
The GI50 was > 100 µM (inactive).

And the GI50 (COLO 205)?
The GI50 was > 100 µM (inactive).

And the GI50 (DLD-1)?
Its GI50 is > 100 µM (inactive).

And the GI50 (DMS-114)?
Its GI50 is > 100 µM (inactive).

And the GI50 (DMS-273)?
The GI50 was > 100 µM (inactive).

And the GI50 (EKVX)?
The GI50 was > 100 µM (inactive).

What about the GI50 (HCC 2998) of the same molecule?
The GI50 was > 100 µM (inactive).

What about the GI50 (HCT-116) of the same molecule?
The GI50 was > 100 µM (inactive).

And the GI50 (HCT-15)?
The GI50 was > 100 µM.

And the GI50 (HL-60)?
Its GI50 is > 100 µM (inactive).

What about the GI50 (HOP-18) of the same molecule?
Its GI50 is > 100 µM (inactive).

And the GI50 (HOP-62)?
The GI50 was > 100 µM (inactive).

And the GI50 (HOP-92)?
Its GI50 is > 100 µM (inactive).

What about the GI50 (HT-29) of the same molecule?
The GI50 was > 100 µM (inactive).

What about the GI50 (IGROV-1) of the same molecule?
The GI50 was > 100 µM (inactive).

And the GI50 (K562)?
The GI50 was > 100 µM (inactive).

And the GI50 (KM-20L2)?
The GI50 was > 100 µM (inactive).

And the GI50 (KM12)?
Its GI50 is > 100 µM (inactive).

What about the GI50 (LOX IMVI) of the same molecule?
Its GI50 is > 100 µM (inactive).

What about the GI50 (LXFL 529) of the same molecule?
The GI50 was > 100 µM (inactive).

And the GI50 (M14)?
Its GI50 is > 100 µM (inactive).

What about the GI50 (M19-MEL) of the same molecule?
The GI50 was > 100 µM (inactive).

What about the GI50 (MOLT-4) of the same molecule?
The GI50 was > 100 µM (inactive).

And the GI50 (Malme-3M)?
Its GI50 is > 100 µM (inactive).

And the GI50 (NCI-H226)?
The GI50 was > 100 µM (inactive).

And the GI50 (NCI-H23)?
The GI50 was > 100 µM (inactive).

What about the GI50 (NCI-H460) of the same molecule?
Its GI50 is > 100 µM (inactive).

What about the GI50 (NCI-H522) of the same molecule?
The GI50 was > 100 µM (inactive).

And the GI50 (OVCAR-3)?
Its GI50 is > 100 µM (inactive).

What about the GI50 (OVCAR-4) of the same molecule?
Its GI50 is > 100 µM (inactive).

What about the GI50 (OVCAR-5) of the same molecule?
The GI50 was > 100 µM (inactive).

And the GI50 (OVCAR-8)?
The GI50 was > 100 µM (inactive).

What about the GI50 (RPMI-8226) of the same molecule?
Its GI50 is > 100 µM (inactive).

What about the GI50 (RXF 393) of the same molecule?
Its GI50 is > 100 µM (inactive).

What about the GI50 (SF-268) of the same molecule?
Its GI50 is > 100 µM (inactive).

What about the GI50 (SF-295) of the same molecule?
The GI50 was > 100 µM (inactive).

And the GI50 (SF-539)?
The GI50 was > 100 µM (inactive).

And the GI50 (SK-MEL-28)?
Its GI50 is > 100 µM (inactive).

And the GI50 (SK-MEL-2)?
The GI50 was > 100 µM (inactive).

And the GI50 (SK-MEL-5)?
Its GI50 is > 100 µM (inactive).

What about the GI50 (SK-OV-3) of the same molecule?
The GI50 was > 100 µM (inactive).

And the GI50 (SN12C)?
Its GI50 is > 100 µM (inactive).

What about the GI50 (SNB-19) of the same molecule?
Its GI50 is > 100 µM (inactive).

And the GI50 (SNB-75)?
The GI50 was > 100 µM (inactive).

What about the GI50 (SNB-78) of the same molecule?
The GI50 was 48.2 µM (inactive).

And the GI50 (SR)?
The GI50 was > 100 µM (inactive).

And the GI50 (SW-620)?
The GI50 was > 100 µM (inactive).

What about the GI50 (TK-10) of the same molecule?
The GI50 was > 100 µM (inactive).

What about the GI50 (U-251) of the same molecule?
Its GI50 is > 100 µM (inactive).

And the GI50 (UACC-257)?
Its GI50 is > 100 µM (inactive).

And the GI50 (UACC-62)?
The GI50 was > 100 µM (inactive).

What about the GI50 (UO-31) of the same molecule?
The GI50 was > 100 µM (inactive).

What about the GI50 (XF498) of the same molecule?
The GI50 was > 100 µM (inactive).
